This is an account of results in ChEMBL document CHEMBL4602735, “Discovery of (1H-Pyrazolo[3,4-c]pyridin-5-yl)sulfonamide Analogues as Hepatitis B Virus Capsid Assembly Modulators by Conformation Constraint” (J Med Chem, 2020).

pEC50: −log10 of the molar value.

Series [1] can be described thus: Cytotoxicity in human HepAD38 cells assessed as induction of cell killing. Type of series: cell-based.
A short description of series [2]: Selectivity index, ratio of CC50 for cytotoxicity in human HepAD38 cells assessed as induction of cell killing to EC50 for antiviral activity against HBV infected in human HepAD38 cells assessed as reduction in viral DNA levels incubated for 6 days by PCR analysis. Particulars: read-out: Ratio CC50/EC50. The series is classed as toxicity, cell-based.
Another series concerns Hepatitis B virus. In words: Antiviral activity against HBV infected in human HepAD38 cells assessed as reduction in viral DNA levels incubated for 6 days by PCR analysis. The series is classed as functional, organism-based. The conditions noted are these: HePAD38, 144 h.

The term CC50 denotes the concentration that lowers cell viability or growth by half. As usually defined, the pEC50 is the EC50 on a negative log10 scale, so that one unit is a factor of ten. In the case of `O=S(=O)(c1ccc2c(c1)c(Nc1ccc(F)cc1)nn2C1CC1)N1CCC(O)C1` (stereo not drawn), the CC50 in series [1] came to 60 µM. Moreover, the selectivity ratio at 144 h in series [2] was determined as 28. Further, the pEC50 in the series on Hepatitis B virus was 5.68.
Regarding `O=S(=O)(c1ccc2c(c1)c(Nc1ccc(F)c(C3CC3)c1)nn2C1CC1)N1CCC(O)CC1`, the CC50 in series [1] came out at 5.86 µM. For the same compound, the selectivity ratio at 144 h in series [2] was 8.6. Also, the pEC50 with Hepatitis B virus is 6.17.
For `Cc1cc(Nc2nn(C3CC3)c3ccc(S(=O)(=O)N4CCC(O)CC4)cc23)ncc1F`, the pEC50 with Hepatitis B virus was under 5.00.
`O=S(=O)(c1cc2c(Nc3ccc(F)c(F)c3)nn(C3CC3)c2cn1)N1CCOCC1`: the CC50 in series [1] was over 100 µM. In series [2], the selectivity ratio at 144 h was over 454. Also, the pEC50 in the series with Hepatitis B virus is 6.66.
For `O=S(=O)(c1ccc2c(c1)c(Nc1ccc(F)cc1Cl)nn2C1CC1)N1CCC(O)CC1` the same measures were over 100 µM, over 25 and 5.40.
For `O=S(=O)(c1ccc2c(c1)c(Nc1ccc(F)c(C(F)F)c1)nn2C1CC1)N1CCOCC1`, in that order: 50 µM, 417 and 6.92.
For `CCn1nc(Nc2ccc(F)cc2)c2cc(S(=O)(=O)N3CCC(O)CC3)ccc21` the same measures were over 100 µM, over 79 and 5.90.
As to `O=S(=O)(c1cnc2c(c1)c(Nc1cc(F)c(F)c(F)c1)nn2C1CC1)N1CCC(O)CC1`, the negative logarithm of the EC50 (pEC50) with Hepatitis B virus is under 4.70.
In the case of `Cc1cc(Nc2nn(CCF)c3ccc(S(=O)(=O)N4CCOCC4)cc23)ccc1F`, the CC50 in series [1] is over 100 µM. In addition, the selectivity ratio at 144 h in series [2] was over 244. Moreover, the pEC50 with Hepatitis B virus was 6.39.
For `O=S(=O)(c1ccc2c(c1)c(Nc1ccc(F)cc1)nn2C1CC1)N1CCC2(CC1)OCCO2`, in that order: over 100 µM, over 400 and 6.60.
Regarding `CC(C)n1nc(Nc2ccc(F)cc2)c2cc(S(=O)(=O)N3CCC(O)CC3)ccc21`, the pEC50 in the series with Hepatitis B virus is under 5.00.
Still for that read-out and setting: the result for `O=S(=O)(c1ccc2c(c1)c(Nc1ccc(F)cc1)nn2C1COC1)N1CCC(O)CC1` reads under 5.00.
On to `O=S(=O)(c1ccc2c(c1)c(Nc1ccccc1)nn2C1CC1)N1CCC(O)CC1`, for which the CC50 in series [1] was found to be 32.2 µM. For the same compound, the selectivity ratio at 144 h in series [2] was determined as 44. For the same compound, the pEC50 in the series on Hepatitis B virus is 6.13.
With `Cc1cc(Nc2nn(C3CC3)c3cc(F)c(S(=O)(=O)N4CCOCC4)cc23)ccc1F`, the CC50 in series [1] was over 100 µM. The pEC50 in the series on Hepatitis B virus was 6.68.
As for `O=S(=O)(c1ccc2c(c1)c(NCc1ccc(F)cc1)nn2C1CC1)N1CCC(O)CC1`, in the series with Hepatitis B virus, the pEC50 was under 5.00.
As to `O=S(=O)(c1ccc2c(c1)c(Nc1ccc(Cl)cc1)nn2C1CC1)N1CCC(O)CC1`, the CC50 in series [1] was 6.9 µM. Also, the selectivity ratio at 144 h in series [2] was 2.2. Moreover, in the series on Hepatitis B virus, the pEC50 was 5.50.
Consider `O=S(=O)(c1ccc2c(c1)c(NC1CCCCC1)nn2C1CC1)N1CCC(O)CC1`, for which the 50% cytotoxic concentration (CC50) in series [1] came to 100 µM. Moreover, in series [2], the selectivity ratio at 144 h is under 10. Also, in the series with Hepatitis B virus, the pEC50 is under 5.00.
For `O=S(=O)(c1ccc2c(c1)c(Nc1ccc(F)cc1)nn2C1CC1)N1CCC(O)CC1`, in that order: over 100 µM, over 455 and 6.66.
Turning to `N#Cc1cc(Nc2nn(C3CC3)c3ccc(S(=O)(=O)N4CCC(O)CC4)cc23)ccc1F`, in the series with Hepatitis B virus, the pEC50 is under 5.00.
For the compound `O=C(O)C1CCN(S(=O)(=O)c2ccc3c(c2)c(Nc2ccc(F)cc2)nn3C2CC2)C1` (stereo not drawn), in series [1], the CC50 was over 100 µM. Also, the pEC50 in the series with Hepatitis B virus is under 5.00.
Regarding `O=S(=O)(c1ccc2c(c1)c(Nc1ccc(F)cc1)nn2C1CCC1)N1CCC(O)CC1`, the CC50 in series [1] was 10.8 µM. In series [2], the selectivity ratio at 144 h amounted to 1.3. In the series with Hepatitis B virus, the pEC50 was 5.10.
On to `O=S(=O)(c1ccc2c(c1)c(NC1CCCC1)nn2C1CC1)N1CCC(O)CC1`, for which the CC50 in series [1] is over 100 µM. In addition, the pEC50 with Hepatitis B virus was under 5.00.
With `O=S(=O)(c1ccc2c(c1)c(Nc1ccc(F)c(C(F)F)c1)nn2C1CC1)N1CCC(O)CC1`, the cytotoxic concentration (CC50) in series [1] was 13.6 µM. For the same compound, in series [2], the selectivity ratio at 144 h is 47. In the series on Hepatitis B virus, the pEC50 was 6.54.
`O=S(=O)(c1ccc2c(c1)c(Nc1ccc(F)cc1)nn2C1CC1)N1CCCC(O)C1` (stereo not drawn): in series [1], the CC50 turned out to be 19.1 µM. The selectivity ratio at 144 h in series [2] is 76.2. Moreover, the pEC50 in the series with Hepatitis B virus is 6.60.
For `O=S(=O)(c1ccc2c(n1)c(Nc1cc(F)c(F)c(F)c1)nn2C1CC1)N1CCC(O)CC1`, the pEC50 with Hepatitis B virus is under 5.30.
In the case of `Cn1nc(Nc2ccc(F)c(Cl)c2)c2cc(S(=O)(=O)N3CCC(O)CC3)ccc21`, the CC50 in series [1] was over 100 µM. Besides, in series [2], the selectivity ratio at 144 h was over 72. Besides, in the series on Hepatitis B virus, the pEC50 is 5.86.
For `Cc1cc(Nc2n[nH]c3ccc(S(=O)(=O)N4CCOCC4)cc23)ccc1F` the same measures were 50 µM, 172 and 6.54.
Regarding `O=S(=O)(c1ccc2c(c(Nc3cc(F)c(F)c(F)c3)nn2C2CC2)c1F)N1CCC(O)CC1`, the CC50 in series [1] is over 100 µM. In addition, the pEC50 with Hepatitis B virus is under 4.70.
For `O=S(=O)(c1ccc2c(c1)c(Nc1ccc(F)c(F)c1)nn2C1CC1)N1CCOCC1`, the 50% cytotoxic concentration (CC50) in series [1] is over 100 µM. In series [2], the selectivity ratio at 144 h is over 454. The negative-log EC50 (pEC50) with Hepatitis B virus is 6.66.
For `O=S(=O)(c1cc2c(Nc3ccc(F)c(C(F)F)c3)nn(C3CC3)c2cn1)N1CCOCC1` the same measures were over 100 µM, over 435 and 6.64.
For `O=S(=O)(c1cc(F)c2c(c1)c(Nc1cc(F)c(F)c(F)c1)nn2C1CC1)N1CCC(O)CC1`, in that order: over 100 µM, over 50 and 5.70.
For `Cc1cc(Nc2nn(CC(F)F)c3ccc(S(=O)(=O)N4CCOCC4)cc23)ccc1F`, the CC50 in series [1] was over 100 µM. The selectivity ratio at 144 h in series [2] was over 435. In addition, in the series on Hepatitis B virus, the pEC50 is 6.64.
For `O=S(=O)(c1ccc2c(c1)c(Oc1ccc(F)c(Cl)c1)nn2C1CC1)N1CCC(O)CC1`, in that order: 75 µM, under 7.5 and under 5.00.
For `O=S(=O)(c1ccc2c(c1)c(Nc1ccc(F)cc1)nn2C1CC1)N1CCOCC1` the same measures were over 100 µM, over 232 and 6.37.
For `Cc1cc(Nc2nn(C3CC3)c3ccc(S(=O)(=O)N4C[C@@H]5C[C@H]4CO5)cc23)ccc1F` the same measures were 19 µM, 422 and 7.35.
Turning to `Cc1ccc(Nc2nn(C3CC3)c3ccc(S(=O)(=O)N4CCC(O)CC4)cc23)cc1`, the negative-log EC50 (pEC50) in the series on Hepatitis B virus is 5.30 to 6.66.
On to `Cc1cc(Nc2nn(C3CC3)c3ccc(S(=O)(=O)N4CCC(O)CC4)cc23)ccn1`, for which, in series [1], the CC50 amounted to 46.6 µM. The selectivity ratio at 144 h in series [2] was under 23. The pEC50 in the series on Hepatitis B virus is under 4.70.
For `Cc1cc(Nc2nn(C3CC3)c3ccc(S(=O)(=O)N4CCC(O)CC4)cc23)ccc1F` the same measures were 11 µM, 343 and 7.49.
With `O=S(=O)(c1ccc2c(c1)c(NCc1ccccc1)nn2C1CC1)N1CCC(O)CC1`, the pEC50 with Hepatitis B virus is under 5.00.
Consider `Cc1cc(Nc2nn(CC(F)(F)F)c3ccc(S(=O)(=O)N4CCOCC4)cc23)ccc1F`, for which the CC50 in series [1] is over 100 µM. For the same compound, the selectivity ratio at 144 h in series [2] was over 417. The pEC50 in the series on Hepatitis B virus is 6.62.
`CN(c1ccc(F)c(Cl)c1)c1nn(C2CC2)c2ccc(S(=O)(=O)N3CCC(O)CC3)cc12`: in series [1], the CC50 was over 100 µM. For the same compound, the pEC50 with Hepatitis B virus was under 5.00.
Turning to `O=S(=O)(c1ccc2c(c1)c(Nc1ccc(F)c(C(F)(F)F)c1)nn2C1CC1)N1CCC(O)CC1`, the CC50 in series [1] is 7.52 µM. The selectivity ratio at 144 h in series [2] worked out at 1.3. Moreover, the negative logarithm of the EC50 (pEC50) in the series with Hepatitis B virus was 5.22.
As to `O=S(=O)(c1ccc2c(c1)c(Nc1ccc(F)cc1)nn2C1CC1)N1CCC(CO)CC1`, the CC50 in series [1] came out at 24.8 µM. For the same compound, the selectivity ratio at 144 h in series [2] stood at 23. Also, the pEC50 in the series on Hepatitis B virus was 5.96.
For `O=S(=O)(c1cc2c(Nc3ccc(F)c(F)c3)nn(C3CC3)c2cn1)N1CCC(O)CC1` the same measures were over 100 µM, over 400 and 6.60.
Take `Cc1cc(F)ccc1Nc1nn(C2CC2)c2ccc(S(=O)(=O)N3CCC(O)CC3)cc12`: the CC50 in series [1] was over 100 µM. Also, the selectivity ratio at 144 h in series [2] is over 87. Further, the pEC50 in the series with Hepatitis B virus was 5.94.
For `O=S(=O)(c1ccc2[nH]nc(Nc3ccc(F)c(Cl)c3)c2c1)N1CCC(O)CC1`, the CC50 in series [1] is 24 µM. In addition, the selectivity ratio at 144 h in series [2] was 18.8. Further, the pEC50 in the series with Hepatitis B virus was 5.89.
Regarding `O=S(=O)(c1cc2c(Nc3ccc(F)c(C(F)(F)F)c3)nn(C3CC3)c2cn1)N1CCOCC1`, the CC50 in series [1] was over 100 µM. The selectivity ratio at 144 h in series [2] is over 294. In addition, the pEC50 in the series with Hepatitis B virus was 6.47.
For `O=S(=O)(c1ccc2c(c1)c(Nc1ccc(F)c(C(F)(F)F)c1)nn2C1CC1)N1CCOCC1` the same measures were 8.42 µM, 29 and 6.54.
For the compound `O=S(=O)(c1cc2c(Nc3cc(F)c(F)c(F)c3)nn(C3CC3)c2cc1F)N1CCC(O)CC1`, the CC50 in series [1] was over 100 µM. Besides, in series [2], the selectivity ratio at 144 h was over 769. The negative logarithm of the EC50 (pEC50) in the series with Hepatitis B virus is 6.89.
For `O=S(=O)(c1cc2c(Nc3cc(F)c(F)c(F)c3)nn(C3CC3)c2cn1)N1CCC(O)CC1`, the CC50 in series [1] is over 100 µM. The selectivity ratio at 144 h in series [2] is over 417. Besides, the negative logarithm of the EC50 (pEC50) with Hepatitis B virus was 6.62.
On to `Cc1cc(Nc2nn(C(F)F)c3ccc(S(=O)(=O)N4CCOCC4)cc23)ccc1F`, for which the 50% cytotoxic concentration (CC50) in series [1] was over 100 µM. Also, the pEC50 in the series with Hepatitis B virus was under 5.00.
In the case of `O=C1CCN(S(=O)(=O)c2ccc3c(c2)c(Nc2ccc(F)cc2)nn3C2CC2)CC1`, in series [1], the CC50 was found to be 14.2 µM. Further, in series [2], the selectivity ratio at 144 h was 43. Further, in the series with Hepatitis B virus, the negative-log EC50 (pEC50) was 6.48.
Consider `O=S(=O)(c1ccc2c(c1)c(Nc1ccc(F)cn1)nn2C1CC1)N1CCC(O)CC1`, for which the pEC50 in the series with Hepatitis B virus is under 5.00.
